Measurements published in DBAASP.
Values after ≈ are worked out from the molar mass of the structure shown. Values joined by “and” are separate entries in the source; they are usually repeats but may differ in a detail not shown here. Equal values may be shown once.

How the values were obtained:
Test in all cases: ≥ marks a high value that may be exact or a test limit, other limits are often not marked, values filed in µg/mL are converted to µM
[1] = test system: Campylobacter jejuni KCTC 5327
[2] = test system: Listeria monocytogenes KCCM 43155
[3] = test system: Salmonella enterica subsp. enterica serovar Typhimurium ATCC 14028
[4] = test system: Listeria monocytogenes KCTC 3710
[5] = test system: Salmonella typhimurium CCARM 8013
[6] = test system: Listeria monocytogenes KCCM 40307
[7] = test system: Streptococcus suis KCTC 3557
[8] = test system: Salmonella typhimurium CCARM 8009
[9] = test system: Pseudomonas aeruginosa PA214
[10] = test system: Escherichia coli ATCC 25922
[11] = test system: Corynebacterium xerosis C875
[12] = test system: Escherichia coli K-12
[13] = test system: Escherichia coli DC2
[14] = test system: Pseudomonas aeruginosa PAO1
[15] = test system: Pseudomonas aeruginosa ATCC 27853
[16] = test system: Enterococcus faecalis ATCC 29212
[17] = test system: Escherichia coli UB1005
[18] = test system: Escherichia coli BL21
[19] = test system: Pseudomonas aeruginosa PA330
[20] = test system: Bacillus subtilis ATCC 6633
[21] = test system: Staphylococcus aureus ATCC 25923
[22] = test system: Staphylococcus epidermidis C621
[23] = test system: Xanthomonas axonopodis pv. citri
[24] = test system: Staphylococcus aureus ATCC 29313
[25] = test system: Staphylococcus aureus ATCC 33591
[26] = test system: Klebsiella pneumoniae ESBL 344/17
[27] = test system: Staphylococcus aureus SG511
[28] = test system: Staphylococcus aureus 1399/17
[29] = test system: Escherichia coli ESBL 521/17
[30] = test system: Escherichia coli ML-35p
[31] = test system: Pseudomonas aeruginosa 522/17
[32] = test system: Acinetobacter baumannii 7226/16
[33] = test system: Staphylococcus haemolyticus
[34] = test system: Aerococcus viridans
[35] = test system: Escherichia coli 363
[36] = test system: Micrococcus luteus
[37] = test system: Aeromonas hydrophila
[38] = test system: Bacillus subtilis
[39] = test system: Vibrio harveyi CGMCC 1.1593
[40] = test system: Vibrio anguillarum
[41] = test system: Vibrio harveyi

SMILES: CC(C)C[C@H](NC(=O)[C@H](CO)NC(=O)[C@H](CC(C)C)NC(=O)[C@H](CC(C)C)NC(=O)[C@H](CO)NC(=O)CNC(=O)[C@H](Cc1ccccc1)NC(=O)[C@@H](N)Cc1ccccc1)C(=O)NCC(=O)N[C@@H](CO)C(=O)N[C@@H](CCCCN)C(=O)N[C@@H](CC(C)C)C(=O)N[C@@H](CC(C)C)C(=O)N1CCC[C@H]1C(=O)N[C@@H](CO)C(=O)N[C@H](C(=O)N[C@@H](Cc1ccccc1)C(=O)N[C@@H](CCCCN)C(=O)N[C@@H](CC(C)C)C(=O)N[C@@H](Cc1ccccc1)C(=O)N[C@@H](CCC(N)=O)C(=O)N[C@@H](CCCN=C(N)N)C(=O)N[C@@H](CCCCN)C(=O)N[C@@H](CCCCN)C(=O)N[C@@H](CCC(=O)O)C(N)=O)C(C)C [FFGSLLSLGSKLLPSVFKLFQRKKE]
- MIC [1]: 2 µM (≈ 5.74 µg/mL)
- MIC [2]: 2 µM (≈ 5.74 µg/mL)
- MIC [3]: 4 µM (≈ 11.5 µg/mL)
- MIC [4]: 2 µM (≈ 5.74 µg/mL)
- MIC [5]: 4 µM (≈ 11.5 µg/mL)
- MIC [6]: 2 µM (≈ 5.74 µg/mL)
- MIC [7]: 2 µM (≈ 5.74 µg/mL)
- MIC [8]: 4 µM (≈ 11.5 µg/mL)

SMILES: C[C@H](NC(=O)[C@H](C)NC(=O)[C@H](Cc1ccccc1)NC(=O)[C@H](C)NC(=O)[C@H](C)NC(=O)[C@H](Cc1c[nH]c2ccccc12)NC(=O)[C@H](C)NC(=O)[C@H](C)NC(=O)[C@H](Cc1ccccc1)NC(=O)[C@H](C)NC(=O)[C@H](C)NC(=O)[C@H](CCCCN)NC(=O)[C@H](CCCCN)NC(=O)[C@H](CCCCN)NC(=O)[C@H](CCCCN)NC(=O)[C@H](CCCCN)NC(=O)[C@@H](N)CCCCN)C(N)=O [KKKKKKAAFAAWAAFAA]
- MIC [9]: 3.1 µM (≈ 5.69 µg/mL)
- MIC [10]: 8 µM (≈ 14.7 µg/mL)
- MIC [11]: 0.5 µM (≈ 0.918 µg/mL)
- MIC [12]: 1.6 µM (≈ 2.94 µg/mL)
- MIC [13]: 0.5 µM (≈ 0.918 µg/mL)
- MIC [14]: 12.5 µM (≈ 22.9 µg/mL)
- MIC [15]: 16 µM (≈ 29.4 µg/mL)
- MIC [16]: > 32 µM
- MIC [17]: 1 µM (≈ 1.84 µg/mL)
- MIC [18]: 1.6 µM (≈ 2.94 µg/mL)
- MIC [19]: 17.7 µM (≈ 32.4 µg/mL)
- MIC [20]: 8 µM (≈ 14.7 µg/mL)
- MIC [21]: > 32 µM
- MIC [22]: 4 µM (≈ 7.34 µg/mL)

SMILES: CC(C)C[C@H](NC(=O)[C@H](C)NC(=O)[C@@H](NC(=O)[C@@H](N)CCCCN)C(C)C)C(=O)NCC(=O)N[C@H](C(=O)N[C@@H](C)C(=O)N[C@@H](CCC(N)=O)C(=O)N[C@@H](CC(N)=O)C(=O)N[C@@H](Cc1ccc(O)cc1)C(=O)N[C@@H](CC(C)C)C(=O)N[C@@H](CC(N)=O)C(=O)N1CCC[C@H]1C(=O)N[C@@H](CCC(N)=O)C(=O)N[C@@H](CCC(N)=O)C(=O)O)C(C)C [KVALGVAQNYLNPQQ]
- MIC [10]: > 156 µM
- MIC [23]: ≥ 156 µM
- MIC [15]: > 156 µM
- MIC [24]: ≥ 156 µM

SMILES: CC[C@H](C)[C@H](NC(=O)[C@H](CCCN=C(N)N)NC(=O)[C@@H](NC(=O)[C@@H]1CCCN1C(=O)[C@@H]1CCCN1C(=O)[C@H](CCCN=C(N)N)NC(=O)[C@H](CCCN=C(N)N)NC(=O)[C@H](Cc1ccccc1)NC(=O)[C@@H]1CCCN1C(=O)[C@H](CC(C)C)NC(=O)[C@H](CCCN=C(N)N)NC(=O)[C@H](Cc1ccccc1)NC(=O)[C@@H](N)CCCN=C(N)N)[C@@H](C)CC)C(=O)N[C@@H](Cc1cnc[nH]1)C(=O)N1CCC[C@H]1C(=O)N1CCC[C@H]1C(=O)N1CCC[C@H]1C(=O)N[C@@H](Cc1ccccc1)C(=O)N[C@@H](Cc1ccc(O)cc1)C(=O)N1CCC[C@H]1C(=O)N1CCC[C@H]1C(=O)N[C@@H](Cc1ccccc1)C(=O)N[C@@H](CCCN=C(N)N)C(=O)N[C@@H](CCCN=C(N)N)C(=O)N[C@@H](Cc1ccccc1)C(=O)N[C@@H](CC(C)C)C(=O)O [RFRLPFRRPPIRIHPPPFYPPFRRFL]
- MIC [25]: ≥ 32 µM
- MIC [26]: 5.66 µM (≈ 19.1 µg/mL)
- MIC [27]: 0.5 µM (≈ 1.69 µg/mL)
- MIC [28]: 11.3 µM (≈ 38.2 µg/mL)
- MIC [29]: 4 µM (≈ 13.5 µg/mL)
- MIC [30]: 2 µM (≈ 6.75 µg/mL)
- MIC [31]: ≥ 32 µM
- MIC [32]: 5.66 µM (≈ 19.1 µg/mL)

SMILES: CC[C@H](C)[C@@H]1NC(=O)[C@@H]2CSSC[C@H](NC(=O)[C@@H]3CCCN3C(=O)[C@H](CO)NC(=O)[C@H](CCCN=C(N)N)NC1=O)C(=O)N1CCC[C@H]1C(=O)N[C@H](C(=O)N[C@@H](C)C(=O)N[C@@H](CC(N)=O)C(=O)N[C@@H](Cc1ccc(O)cc1)C(=O)NCC(=O)O)CSSC[C@H](NC(=O)CNC(=O)[C@@H]1CCCN1C(=O)[C@H](CCCN=C(N)N)NC(=O)CNC(=O)CNC(=O)[C@H](Cc1ccccc1)NC(=O)[C@H](CCC(N)=O)NC(=O)CNC(=O)CNC(=O)[C@@H](NC(=O)[C@H](Cc1ccccc1)NC(=O)[C@@H]1CCCN1C(=O)[C@H](CCCN=C(N)N)NC(=O)CNC(=O)CNC(=O)[C@H](Cc1ccccc1)NC(=O)[C@@H]1CCCN1C(=O)[C@H](CCCN=C(N)N)NC(=O)CNC(=O)[C@H](Cc1ccc(O)cc1)NC(=O)[C@H](CCCN=C(N)N)NC(=O)[C@H](CCCN=C(N)N)NC(=O)[C@H](CO)NC(=O)[C@@H](NC(=O)[C@H](CCCN=C(N)N)NC(=O)[C@@H]1CCCN1C(=O)[C@@H](N)CO)C(C)C)C(C)C)C(=O)N[C@@H](C(C)C)C(=O)N2 [SPRVSRRYGRPFGGRPFVGGQFGGRPGCVCIRSPCPCANYG]
- MIC [33]: 12.5 µM (≈ 54.6 µg/mL)
- MIC [34]: 0.39 µM (≈ 1.7 µg/mL)
- MIC [35]: ≥ 50 µM
- MIC [36]: 0.78 µM (≈ 3.41 µg/mL)
- MIC [37]: ≥ 50 µM
- MIC [38]: 12.5 µM and 10.1 µM
- MIC [39]: 5.06 µM (≈ 22.1 µg/mL)
- MIC [40]: 6.25 µM (≈ 27.3 µg/mL)
- MIC [41]: 1.56 µM (≈ 6.82 µg/mL)
